Data set [1] concerns MV4-11. Nature of the data set: Induction of apoptosis in human MV4-11 cells assessed as late apoptotic cells at 1 uM incubated for 18 hrs by annexin V FITC and PI based flow cytometry (reference value: 9.2 to 9.63 %). The class given is functional. A general note: In flow cytometry, cells or beads pass a laser one at a time.
Data set [2] has as its target Histone deacetylase 9 (Homo sapiens, UniProt Q9UKV0). Nature of the data set: Inhibition of recombinant human HDAC9 (604-1066 residues) expressed in baculovirus infected Sf9 cells using FAM-RHKK-TFAc as substrate incubated for 3 hrs by electrophoretic mobility shift assay.
Data set [3] concerns MV4-11. Put plainly: Induction of apoptosis in human MV4-11 cells assessed as viable cells at 2 uM incubated for 18 hrs by annexin V FITC and PI based flow cytometry (reference value: 53.01 to 53.07 %). The class given is functional. The note with it: Homo sapiens, MV4-11, 18 h; read-out: Activity.
The subject of data set [4] is MV4-11. Nature of the data set: Induction of apoptosis in human MV4-11 cells assessed as early apoptotic cells at 4 uM incubated for 18 hrs by annexin V FITC and PI based flow cytometry (reference value: 19.46 to 22.17 %). The class given is functional.
For data set [5], the system named is MV4-11. Put plainly: Induction of apoptosis in human MV4-11 cells assessed as late apoptotic cells at 0.5 uM incubated for 18 hrs by annexin V FITC and PI based flow cytometry (reference value: 9.2 to 9.63 %). The class given is functional.
Data set [6] concerns MV4-11. Nature of the data set: Induction of apoptosis in human MV4-11 cells assessed as viable cells at 1 uM incubated for 18 hrs by annexin V FITC and PI based flow cytometry (reference value: 53.01 to 53.07 %). The data set is classed as functional. Particulars: Homo sapiens, MV4-11, 18 h; read-out: Activity.
For data set [7], the system named is MV4-11. Put plainly: Induction of apoptosis in human MV4-11 cells assessed as early apoptotic cells at 1 uM incubated for 18 hrs by annexin V FITC and PI based flow cytometry (reference value: 19.46 to 22.17 %). The data set is classed as functional.
In data set [8] the test system is MV4-11. Put plainly: Induction of apoptosis in human MV4-11 cells assessed as late apoptotic cells at 4 uM incubated for 18 hrs by annexin V FITC and PI based flow cytometry (reference value: 9.2 to 9.63 %). The class given is functional.
Data set [9] concerns MDA-MB-231. Put plainly: Cytotoxicity against human MDA-MB-231 cells assessed as reduction in cell viability incubated for 72 hrs by cell-titer blue assay. The class given is functional, cell-based. The note with it: MDA-MB-231, 72 h.
Data set [10] has as its system MV4-11. Nature of the data set: Cytotoxicity against human MV4-11 cells assessed as reduction in cell viability incubated for 72 hrs by cell-titer blue assay. The data set is classed as functional, cell-based. Particulars: MV4-11, 72 h.
Data set [11] is described as follows: Oral bioavailability in CD-1 mouse at 20 mg/kg measured upto 24 hrs by LC/MS/MS analysis. The data set is classed as ADME, organism-based. Particulars: in vivo.
The nature of data set [12]: Intrinsic clearance in ICR/CD1 mouse hepatocytes at 1 uM measured upto 120 mins by LCMS analysis. The data set is classed as ADME, cell-based, Hepatocyte. The note with it: 2 h.
The nature of data set [13]: Half life in NSG mouse. The data set is classed as ADME. The note with it: in vivo.
The target of data set [14] is Histone deacetylase 5 (Homo sapiens, UniProt Q9UQL6). Put plainly: Inhibition of recombinant full length human HDAC5 expressed in baculovirus infected Sf9 cells using FAM-RHKK-TFAc as substrate incubated for 3 hrs by electrophoretic mobility shift assay. Background: Mobility shift assays separate free from complexed probe on a gel.
The subject of data set [15] is MDA-MB-468. Put plainly: Cytotoxicity against human MDA-MB-468 cells assessed as reduction in cell viability incubated for 72 hrs by cell-titer blue assay. Particulars: MDA-MB-468, 72 h. The class given is functional, cell-based.
Data set [16] is described as follows: Tmax in NSG mouse. The data set is classed as ADME. Particulars: in vivo.
In data set [17] the test system is MOLM-13. Put plainly: Cytotoxicity against human MOLM13 cells assessed as reduction in cell viability incubated for 72 hrs by cell-titer blue assay. The data set is classed as functional, cell-based. The note with it: MOLM-13, 72 h.
Data set [18] deals with Histone deacetylase 2 (Homo sapiens, UniProt Q92769). Nature of the data set: Inhibition of recombinant full length human HDAC2 expressed in baculovirus infected Sf9 cells using FAM-RHKK-Ac as substrate incubated for 17 hrs by electrophoretic mobility shift assay.
The target of data set [19] is T1, Protein deacetylase HDAC6 (Homo sapiens, UniProt Q9UBN7).
T1 sequence (Q9UBN7 whole entry): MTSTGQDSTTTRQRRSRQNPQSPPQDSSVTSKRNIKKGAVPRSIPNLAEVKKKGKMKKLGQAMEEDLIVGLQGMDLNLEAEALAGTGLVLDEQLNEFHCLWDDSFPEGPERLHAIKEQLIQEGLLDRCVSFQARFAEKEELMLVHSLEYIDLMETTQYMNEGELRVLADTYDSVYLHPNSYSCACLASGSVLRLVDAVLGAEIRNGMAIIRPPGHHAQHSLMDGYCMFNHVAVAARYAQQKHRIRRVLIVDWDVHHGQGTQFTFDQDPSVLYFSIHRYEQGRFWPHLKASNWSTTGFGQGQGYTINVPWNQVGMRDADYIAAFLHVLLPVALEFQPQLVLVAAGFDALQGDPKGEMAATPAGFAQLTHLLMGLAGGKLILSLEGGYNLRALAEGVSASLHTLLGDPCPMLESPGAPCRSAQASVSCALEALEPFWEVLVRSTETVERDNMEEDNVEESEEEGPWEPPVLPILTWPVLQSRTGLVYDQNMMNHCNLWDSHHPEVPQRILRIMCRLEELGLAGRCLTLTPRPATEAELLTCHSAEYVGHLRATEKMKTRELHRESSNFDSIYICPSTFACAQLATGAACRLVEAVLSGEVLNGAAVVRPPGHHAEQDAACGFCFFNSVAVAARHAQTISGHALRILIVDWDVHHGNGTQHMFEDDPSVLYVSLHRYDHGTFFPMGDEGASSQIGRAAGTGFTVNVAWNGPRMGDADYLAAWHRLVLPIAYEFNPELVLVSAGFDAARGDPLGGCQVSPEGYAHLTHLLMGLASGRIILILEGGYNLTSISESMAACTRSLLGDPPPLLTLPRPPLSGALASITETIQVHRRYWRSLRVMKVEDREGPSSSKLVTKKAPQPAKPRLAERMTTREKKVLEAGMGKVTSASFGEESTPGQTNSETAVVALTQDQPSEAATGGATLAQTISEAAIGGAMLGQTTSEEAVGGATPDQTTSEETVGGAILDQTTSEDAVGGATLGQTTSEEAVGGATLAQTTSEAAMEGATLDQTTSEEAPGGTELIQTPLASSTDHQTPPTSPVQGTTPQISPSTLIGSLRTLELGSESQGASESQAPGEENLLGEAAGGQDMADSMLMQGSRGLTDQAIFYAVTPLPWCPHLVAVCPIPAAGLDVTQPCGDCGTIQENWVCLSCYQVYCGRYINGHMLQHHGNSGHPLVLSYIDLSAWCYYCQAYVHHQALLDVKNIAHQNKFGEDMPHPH
Nature of the data set: Inhibition of recombinant full length human HDAC6 expressed in baculovirus infected Sf9 cells using FAM-RHKK-Ac as substrate incubated for 5 hrs by electrophoretic mobility shift assay.

Data set [20] can be described thus: Protein binding in CD-1 mouse plasma at 1 uM incubated for 6 hrs by LCMS analysis. Particulars: CD-1, mouse, read-out: PPB (converted). The data set is classed as ADME, cell-free.
Data set [21] is described as follows: Cmax in NSG mouse. The data set is classed as ADME. The note with it: in vivo.
The nature of data set [22]: Efflux ratio of apparent permeability in human Caco2 cells incubated for 2 hrs by LC/MS analysis. The data set is classed as ADME, cell-based, Caco-2. Particulars: Caco-2. Background: Caco-2 monolayers are a common model of the intestinal barrier.
Data set [23] can be described thus: Stability in CD-1 mouse hepatocytes assessed as compound remaining at 1 uM measured up to 6 hrs by LCMS analysis. The data set is classed as ADME, cell-based, Hepatocyte. Particulars: mouse, 6 h, 1 µM.
Data set [24] deals with MV4-11. Nature of the data set: Induction of apoptosis in human MV4-11 cells assessed as viable cells at 4 uM incubated for 18 hrs by annexin V FITC and PI based flow cytometry (reference value: 53.01 to 53.07 %). Particulars: Homo sapiens, MV4-11, 18 h; read-out: Activity. The data set is classed as functional.

Experimental findings from ChEMBL document CHEMBL4373747 (ACS Med Chem Lett, 2020) are described below.

Some results are limits rather than exact numbers.

Chain of Histone deacetylase 5 (Q9UQL6 whole entry): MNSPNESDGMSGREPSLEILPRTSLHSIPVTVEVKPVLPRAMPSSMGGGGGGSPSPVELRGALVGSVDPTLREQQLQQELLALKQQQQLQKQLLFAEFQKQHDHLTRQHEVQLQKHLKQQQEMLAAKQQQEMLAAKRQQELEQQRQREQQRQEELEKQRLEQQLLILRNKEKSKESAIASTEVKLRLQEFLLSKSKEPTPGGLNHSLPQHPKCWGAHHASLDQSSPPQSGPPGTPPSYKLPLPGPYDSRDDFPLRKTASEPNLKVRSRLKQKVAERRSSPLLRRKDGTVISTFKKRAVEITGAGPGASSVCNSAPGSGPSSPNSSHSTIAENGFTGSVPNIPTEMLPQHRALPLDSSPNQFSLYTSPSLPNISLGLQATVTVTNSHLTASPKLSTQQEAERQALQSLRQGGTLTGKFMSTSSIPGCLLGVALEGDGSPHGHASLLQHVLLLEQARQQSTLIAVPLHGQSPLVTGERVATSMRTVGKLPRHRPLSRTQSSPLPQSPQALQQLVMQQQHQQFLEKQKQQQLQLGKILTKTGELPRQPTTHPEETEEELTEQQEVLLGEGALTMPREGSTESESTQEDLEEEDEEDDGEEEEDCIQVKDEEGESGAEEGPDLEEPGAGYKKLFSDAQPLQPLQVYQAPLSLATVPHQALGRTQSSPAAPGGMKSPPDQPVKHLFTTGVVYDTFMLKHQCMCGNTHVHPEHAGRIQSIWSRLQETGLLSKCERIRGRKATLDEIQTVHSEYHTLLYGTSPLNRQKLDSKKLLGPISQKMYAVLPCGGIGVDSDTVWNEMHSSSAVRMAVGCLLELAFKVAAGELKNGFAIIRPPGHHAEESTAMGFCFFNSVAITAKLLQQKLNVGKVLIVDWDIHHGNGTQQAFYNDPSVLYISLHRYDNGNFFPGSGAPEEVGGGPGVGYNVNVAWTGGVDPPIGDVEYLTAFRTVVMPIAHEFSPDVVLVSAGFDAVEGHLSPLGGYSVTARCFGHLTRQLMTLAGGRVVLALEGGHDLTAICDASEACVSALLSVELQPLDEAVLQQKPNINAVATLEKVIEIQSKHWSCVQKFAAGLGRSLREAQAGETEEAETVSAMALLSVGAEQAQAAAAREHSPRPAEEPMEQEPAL
Chain of Histone deacetylase 2 (Q92769 whole entry): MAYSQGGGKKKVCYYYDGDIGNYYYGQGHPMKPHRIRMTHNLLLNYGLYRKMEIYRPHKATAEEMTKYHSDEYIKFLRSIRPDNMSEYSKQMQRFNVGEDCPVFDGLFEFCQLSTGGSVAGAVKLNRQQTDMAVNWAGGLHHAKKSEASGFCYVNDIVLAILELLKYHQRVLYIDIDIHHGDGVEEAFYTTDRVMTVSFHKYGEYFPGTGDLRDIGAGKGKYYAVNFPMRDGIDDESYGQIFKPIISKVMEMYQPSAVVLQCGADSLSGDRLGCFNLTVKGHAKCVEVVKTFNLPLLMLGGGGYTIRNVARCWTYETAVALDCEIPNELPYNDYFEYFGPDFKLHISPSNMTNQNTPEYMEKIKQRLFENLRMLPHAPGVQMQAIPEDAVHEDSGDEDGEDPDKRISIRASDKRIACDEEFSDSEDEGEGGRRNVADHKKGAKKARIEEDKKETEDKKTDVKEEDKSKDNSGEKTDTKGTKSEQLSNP
Chain of Histone deacetylase 9 (Q9UKV0 whole entry, the tested form may be a part): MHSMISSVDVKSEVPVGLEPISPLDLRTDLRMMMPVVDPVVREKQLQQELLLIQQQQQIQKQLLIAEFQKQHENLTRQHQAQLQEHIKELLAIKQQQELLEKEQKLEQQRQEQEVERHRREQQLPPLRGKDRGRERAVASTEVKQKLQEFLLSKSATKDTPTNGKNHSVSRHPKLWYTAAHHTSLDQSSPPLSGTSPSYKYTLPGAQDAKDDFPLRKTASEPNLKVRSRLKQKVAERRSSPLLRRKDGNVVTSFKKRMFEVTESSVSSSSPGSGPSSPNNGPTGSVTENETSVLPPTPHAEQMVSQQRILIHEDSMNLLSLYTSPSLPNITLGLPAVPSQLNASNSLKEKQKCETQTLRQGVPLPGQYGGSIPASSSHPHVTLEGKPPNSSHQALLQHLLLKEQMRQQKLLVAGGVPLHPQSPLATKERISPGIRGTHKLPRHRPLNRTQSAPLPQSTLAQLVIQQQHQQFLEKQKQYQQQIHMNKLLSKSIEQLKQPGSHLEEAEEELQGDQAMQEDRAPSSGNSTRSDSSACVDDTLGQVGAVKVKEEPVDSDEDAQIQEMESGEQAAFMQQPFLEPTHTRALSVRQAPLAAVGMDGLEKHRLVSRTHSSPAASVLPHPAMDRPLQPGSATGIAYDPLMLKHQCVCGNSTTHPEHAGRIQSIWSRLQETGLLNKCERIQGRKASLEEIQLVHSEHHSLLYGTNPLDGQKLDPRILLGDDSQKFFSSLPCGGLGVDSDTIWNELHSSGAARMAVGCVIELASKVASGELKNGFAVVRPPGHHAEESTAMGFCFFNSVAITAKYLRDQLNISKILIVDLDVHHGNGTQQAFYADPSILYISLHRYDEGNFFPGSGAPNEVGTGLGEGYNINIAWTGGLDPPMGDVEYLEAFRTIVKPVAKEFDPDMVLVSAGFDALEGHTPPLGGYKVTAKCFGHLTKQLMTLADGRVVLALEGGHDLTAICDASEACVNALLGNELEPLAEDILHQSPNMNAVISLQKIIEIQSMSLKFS

For `CC(C)(C)c1ccc(C(=O)Nc2ccc(C(=O)NO)cc2)cc1`, the Activity was 16.08% in data set [1]; 32.14% in data set [4]; 11.7% in data set [5]; 29.78% in [7]; 38.48% in data set [8]. Further, the 50% inhibitory concentration (IC50) is greater than 1000 nM in data set [2]; greater than 25000 nM in data set [9]; 576 nM in data set [10]; greater than 1000 nM in data set [14]; greater than 50000 nM in data set [15]; 6000 nM in [17]. Besides, the 50% inhibitory concentration (IC50) was greater than 1000 nM in data set [18] and 24.4 nM in data set [19]. Further, the viability at 2 µM in data set [3] was determined as 22.1%. In addition, the viability at 1 µM in data set [6] is 40.9%. The compound further registered a bioavailability in [11] of 19.8%. The same compound registered a CLH in [12] of 49.1 µL/min. Further, the half-life in data set [13] is 5 h. Also, in [16], the Tmax turned out to be 8 h. The fraction unbound at 6 h, 1 µM in data set [20] is 0.047. The same compound yielded a Cmax in data set [21] of 10.7 µM. Also, the efflux ratio at 2 h in data set [22] was found to be 0.64. Moreover, the Stability in data set [23] is 20%. For the same compound, the viability at 4 µM in data set [24] worked out at 16.3%.

The term IC50 denotes the concentration that inhibits the measured activity by half. Broadly, the bioavailability is dose-corrected exposure relative to a reference, in per cent. Low readings indicate little systemic uptake, high ones much systemic uptake. The term half-life denotes the time in which the quantity being followed falls by half. A lower half-life goes with rapid decline. By Tmax is commonly meant the time from dosing to the highest level. As a reminder, the Cmax is the highest concentration seen after dosing. As a reminder, the efflux ratio is a quotient of directional permeabilities that is used to spot active efflux.
